Among the data in ChEMBL document CHEMBL3751682, “Synthesis, anti-inflammatory, ulcerogenic and cyclooxygenase activities of indenopyrimidine derivatives” (Bioorg Med Chem Lett, 2016) are inhibition in vivo, Ratio IC50 and UI values, retold here.

For data set [1], the system named is Rattus norvegicus. The data set is described as follows: Anti-inflammatory activity in albino Wistar rat assessed as inhibition of carrageenan-induced paw edema at 25 mg/kg, po measured every one hour for 5 hrs. In kind it is functional.
Data set [2] concerns Rattus norvegicus. As to the kind of experiment: Anti-inflammatory activity in albino Wistar rat assessed as inhibition of carrageenan-induced paw edema at 50 mg/kg, po measured every one hour for 5 hrs. The format is functional. In general terms: In the carrageenan paw model, swelling and tenderness develop within hours.
The nature of data set [3]: Ratio of IC50 for human COX2 to IC50 for ovine COX1 by prostaglandin biosynthesis assay.
The test system of data set [4] is Rattus norvegicus. As to the kind of experiment: Ulcerogenicity in albino Wistar rat assessed as ulcer index at 50 mg/kg, po after 20 hrs. The format is toxicity, organism-based. As to conditions: in vivo.
Data set [5] relates to Rattus norvegicus. As to the kind of experiment: Anti-inflammatory activity in albino Wistar rat assessed as inhibition of carrageenan-induced paw edema at 30 mg/kg, po measured every one hour for 5 hrs. In kind it is functional.
Data set [6] has as its system Rattus norvegicus. The data set is described as follows: Ulcerogenicity in albino Wistar rat assessed as ulcer index at 100 mg/kg, po after 20 hrs. In kind it is toxicity, organism-based. As to conditions: in vivo.

Take `Nc1nc(-c2ccc(Br)cc2)c2c(n1)-c1ccccc1C2=O`: the inhibition in vivo (commonly the relative decrease from the control value, in per cent) at 25 mg/kg in data set [1] came out at 76.7%. In data set [2], the inhibition in vivo at 50 mg/kg came to 80%. Further, the Ratio IC50 in data set [3] was found to be 0.69. Moreover, the UI in data set [4] is recorded as 2.9.
In the case of `O=C(O)Cc1ccccc1Nc1c(Cl)cccc1Cl` [DICLOFENAC], in data set [5], the inhibition in vivo at 30 mg/kg is 85.3%. Besides, in data set [6], the UI amounted to 5.7.
Regarding `Nc1nc(-c2ccc(Cl)cc2)c2c(n1)-c1ccccc1C2=O`, in data set [1], the inhibition in vivo at 25 mg/kg is 76%. Also, the inhibition in vivo at 50 mg/kg in data set [2] stood at 78%. Besides, the Ratio IC50 in data set [3] was 0.7. The UI in data set [4] came to 3.
For `COc1cccc(-c2nc(N)nc3c2C(=O)c2ccccc2-3)c1`, in that order: 75.3%, 78%, 0.68 and 2.9.
`Nc1nc(-c2cccc([N+](=O)[O-])c2)c2c(n1)-c1ccccc1C2=O`: in data set [1], the inhibition in vivo at 25 mg/kg was 76%. The inhibition in vivo at 50 mg/kg in data set [2] was 79.3%. Moreover, the Ratio IC50 in data set [3] is 0.7. Also, the UI in data set [4] is 2.9.
On to `Cc1ccc(-c2cc(C(F)(F)F)nn2-c2ccc(S(N)(=O)=O)cc2)cc1`, for which the Ratio IC50 in data set [3] amounted to 0.04.
`Nc1nc(-c2ccc([N+](=O)[O-])cc2)c2c(n1)-c1ccccc1C2=O`: in data set [1], the inhibition in vivo at 25 mg/kg stood at 77.3%. For the same compound, the inhibition in vivo at 50 mg/kg in data set [2] was found to be 81.3%. The UI in data set [4] came to 2.9.
For the compound `COc1cc(-c2nc(N)nc3c2C(=O)c2ccccc2-3)cc(OC)c1OC`, the inhibition in vivo at 25 mg/kg in data set [1] turned out to be 75.3%. For the same compound, the inhibition in vivo at 50 mg/kg in data set [2] was determined as 78.7%. In addition, the Ratio IC50 in data set [3] was determined as 0.69. Further, the UI in data set [4] is listed as 2.8.
As to `Nc1nc(-c2ccccc2)c2c(n1)-c1ccccc1C2=O`, the inhibition in vivo at 25 mg/kg in data set [1] stood at 76.7%. Also, the inhibition in vivo at 50 mg/kg in data set [2] amounted to 80.7%. Moreover, the UI in data set [4] amounted to 3.
